In patent publication US20180199572A1, “Herbicidal Composition Comprising Cinmethylin and Metolachlor or S-Metolachlor” (BASF Agro B.V., priority 2015, published 2018):

Experiments:
Assay in all cases: Greenhouse pre-emergence herbicidal activity
Format in all cases: in vivo
Conditions in all cases: 20 DAT
[1] = system: Stellaria media (STEME)
[2] = system: Anthemis arvensis (ANTAR)
[3] = system: Abutilon theophrasti (ABUTH)
[4] = system: Lolium multiflorum (LOLMU)
[5] = system: Alopecurus myosuroides (ALOMY)
[6] = system: Polygonum convolvulus (POLCO)
[7] = system: Avena fatua (AVEFA)
[8] = system: Setaria viridis (SETVI)
[9] = system: Chenopodium album (CHEAL)
[10] = solo S-metolachlor, use rate 125 g ai/ha
[11] = solo S-metolachlor, use rate 250 g ai/ha
[12] = solo S-metolachlor, use rate 62.5 g ai/ha
[13] = solo herbicide A, use rate 62.5 g ai/ha
[14] = solo herbicide A, use rate 125 g ai/ha
[15] = solo herbicide A, use rate 31.25 g ai/ha

## CCc1cccc(C)c1N(C(=O)CCl)[C@@H](C)COC [S-metolachlor]
[1]; [10]
  herbicidal activity (%): 35%
[1]; [11]
  herbicidal activity (%): 65%
[2]; [12]
  herbicidal activity (%): 0%
[2]; [10]
  herbicidal activity (%): 0%
[2]; [11]
  herbicidal activity (%): 25%
[3]; [12]
  herbicidal activity (%): 0%
[3]; [10]
  herbicidal activity (%): 0%
[4]; [11]
  herbicidal activity (%): 60%
[5]; [10]
  herbicidal activity (%): 40%
[5]; [11]
  herbicidal activity (%): 50%
[6]; [11]
  herbicidal activity (%): 25%
[6]; solo S-metolachlor, use rate 500 g ai/ha
  herbicidal activity (%): 20%
[7]; [11]
  herbicidal activity (%): 25%
[8]; [12]
  herbicidal activity (%): 80%
[9]; [12]
  herbicidal activity (%): 0%

## (±)-2-exo-(2-Methylbenzyloxy)-1-methyl-4-isopropyl-7-oxabicyclo[2.2.1]heptane [herbicide A]
[1]; [13]
  herbicidal activity (%): 30%
[1]; [14]
  herbicidal activity (%): 40%
[2]; [15]
  herbicidal activity (%): 0%
[2]; [13]
  herbicidal activity (%): 0%
[2]; [14]
  herbicidal activity (%): 0%
[3]; [15]
  herbicidal activity (%): 30%
[3]; [13]
  herbicidal activity (%): 60%
[4]; [14]
  herbicidal activity (%): 85%
[5]; [13]
  herbicidal activity (%): 98%
[5]; [14]
  herbicidal activity (%): 98%
[6]; [14]
  herbicidal activity (%): 0%
[6]; solo herbicide A, use rate 250 g ai/ha
  herbicidal activity (%): 15%
[7]; [14]
  herbicidal activity (%): 25%
[8]; [15]
  herbicidal activity (%): 90%
[9]; [15]
  herbicidal activity (%): 40%
